Experimental data from the supplement of paper PMC4858399.

Legend:
Settings in all cases: exposure time 48 h
[1] = test system: Caenorhabditis elegans N2; assay: AC50 for larval growth inhibition (Hill fit); higher = less potent
Method in brief: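 After 48 h at 20°C in K-medium with killed OP50, 1% DMSO and 0.5–200 µM chemical, synchronised C. elegans N2 L1 larvae (50 per well, 96-well plates) were sized individually as extinction on a COPAS Biosort. These values were log-transformed and averaged per well, and wells with fewer than 10 worms were excluded. The AC50 was derived from a constrained Hill fit by weighted genetic-algorithm regression, and out-of-range values are censored.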

[2] = test system: Caenorhabditis elegans N2; assay: mean nematode size ln(EXT) after 48 h, plate-adjusted (DMSO control set to 6) (ln(EXT), control-adjusted); higher = larger nematodes / less growth inhibition
Method in brief: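 Worms were measured individually for extinction on the Biosort after 48 h at 20°C. They began as synchronised C. elegans N2 L1 larvae in K-medium with killed OP50, 1% DMSO and 0.5–200 µM chemical. Once debris had been removed by a growth model, values were natural-logged and averaged per well to give mean size. The plate adjustment subtracted the vehicle control mean and added 6.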

[3] = test system: Caenorhabditis elegans N2; assay: lowest effective concentration for larval growth inhibition (size below effect threshold); higher = less potent
Method in brief: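 L1 larvae of C. elegans N2 (50 per 96-well) were grown in K-medium with killed bacteria and 1% DMSO, with the chemical at 0.5, 1, 5, 10, 50, 100 or 200 µM, for 48 h at 20°C. Per-worm extinction from the Biosort stood for size and was log-transformed into well means. For each chemical, the lowest effective concentration is the first dose where plate-adjusted mean size falls under the threshold and stays under it at the higher doses, using a threshold of 5.665.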

CCSC(=O)N1CCCCCC1 [Molinate]
AC50 for larval growth inhibition [1]: > 200 µM
mean nematode size ln(EXT) (ln) ([2]; 0.5 µM): 5.42
mean nematode size ln(EXT) (ln) ([2]; 1 µM): 5.42
mean nematode size ln(EXT) (ln) ([2]; 5 µM): 5.29
mean nematode size ln(EXT) (ln) ([2]; 10 µM): 5.63
mean nematode size ln(EXT) (ln) ([2]; 50 µM): 5.44
mean nematode size ln(EXT) (ln) ([2]; 100 µM): 5.62
mean nematode size ln(EXT) (ln) ([2]; 200 µM): 5.21
lowest effective concentration [3]: ≤ 0.5 µM

O=C(Nc1ccccc1)Nc1cnns1 [Thidiazuron]
AC50 for larval growth inhibition [1]: > 200 µM
mean nematode size ln(EXT) (ln) ([2]; 0.5 µM): 6.05
mean nematode size ln(EXT) (ln) ([2]; 1 µM): 6.18
mean nematode size ln(EXT) (ln) ([2]; 5 µM): 6.1
mean nematode size ln(EXT) (ln) ([2]; 10 µM): 5.93
mean nematode size ln(EXT) (ln) ([2]; 50 µM): 6.01
mean nematode size ln(EXT) (ln) ([2]; 100 µM): 5.89
mean nematode size ln(EXT) (ln) ([2]; 200 µM): 4.8
lowest effective concentration [3]: 200 µM

CCc1nn(C)c(C(=O)NCc2ccc(C(C)(C)C)cc2)c1Cl [Tebufenpyrad]
AC50 for larval growth inhibition [1]: 1.03 µM
mean nematode size ln(EXT) (ln) ([2]; 0.5 µM): 4.96
mean nematode size ln(EXT) (ln) ([2]; 1 µM): 5.23
mean nematode size ln(EXT) (ln) ([2]; 5 µM): 3.83
mean nematode size ln(EXT) (ln) ([2]; 10 µM): 3.7
mean nematode size ln(EXT) (ln) ([2]; 50 µM): 3.95
mean nematode size ln(EXT) (ln) ([2]; 100 µM): 4.11
mean nematode size ln(EXT) (ln) ([2]; 200 µM): 3.36
lowest effective concentration [3]: ≤ 0.5 µM

O=[N+]([O-])c1ccc(Oc2ccc(Cl)cc2Cl)cc1 [2,4-dichloro-1-(4-nitrophenoxy)benzene]
AC50 for larval growth inhibition [1]: 5.16 µM
mean nematode size ln(EXT) (ln) ([2]; 0.5 µM): 5.88
mean nematode size ln(EXT) (ln) ([2]; 1 µM): 5.74
mean nematode size ln(EXT) (ln) ([2]; 5 µM): 5.03
mean nematode size ln(EXT) (ln) ([2]; 10 µM): 3.93
mean nematode size ln(EXT) (ln) ([2]; 50 µM): 3.8
mean nematode size ln(EXT) (ln) ([2]; 100 µM): 3.76
mean nematode size ln(EXT) (ln) ([2]; 200 µM): 4.04
lowest effective concentration [3]: 5 µM

CC(C)(C)c1cccc(C(C)(C)C)c1O [2,6-Di-tert-butylphenol]
AC50 for larval growth inhibition [1]: > 200 µM
mean nematode size ln(EXT) (ln) ([2]; 0.5 µM): 6.07
mean nematode size ln(EXT) (ln) ([2]; 1 µM): 5.99
mean nematode size ln(EXT) (ln) ([2]; 5 µM): 6.03
mean nematode size ln(EXT) (ln) ([2]; 10 µM): 6.07
mean nematode size ln(EXT) (ln) ([2]; 50 µM): 5.91
mean nematode size ln(EXT) (ln) ([2]; 100 µM): 5.88
mean nematode size ln(EXT) (ln) ([2]; 200 µM): 5.19
lowest effective concentration [3]: 200 µM

c1ccc2[nH]c(-c3cscn3)nc2c1 [Thiabendazole]
AC50 for larval growth inhibition [1]: > 200 µM
mean nematode size ln(EXT) (ln) ([2]; 0.5 µM): 6.04
mean nematode size ln(EXT) (ln) ([2]; 1 µM): 6.23
mean nematode size ln(EXT) (ln) ([2]; 5 µM): 6.02
mean nematode size ln(EXT) (ln) ([2]; 10 µM): 5.98
mean nematode size ln(EXT) (ln) ([2]; 50 µM): 5.78
mean nematode size ln(EXT) (ln) ([2]; 100 µM): 5.93
mean nematode size ln(EXT) (ln) ([2]; 200 µM): 4.91
lowest effective concentration [3]: 200 µM

CCOP(=S)(OCC)Oc1nc(Cl)c(Cl)cc1Cl [Chlorpyrifos]
AC50 for larval growth inhibition [1]: 2.28 µM
mean nematode size ln(EXT) (ln) ([2]; 0.5 µM): 5.55
mean nematode size ln(EXT) (ln) ([2]; 1 µM): 5.06
mean nematode size ln(EXT) (ln) ([2]; 5 µM): 4.29
mean nematode size ln(EXT) (ln) ([2]; 10 µM): 3.42
mean nematode size ln(EXT) (ln) ([2]; 50 µM): 3.29
mean nematode size ln(EXT) (ln) ([2]; 100 µM): 3.43
mean nematode size ln(EXT) (ln) ([2]; 200 µM): 3.06
lowest effective concentration [3]: ≤ 0.5 µM

CC(C)Oc1cc(-n2nc(C(C)(C)C)oc2=O)c(Cl)cc1Cl [Oxadiazon]
AC50 for larval growth inhibition [1]: 120 µM
mean nematode size ln(EXT) (ln) ([2]; 0.5 µM): 6.14
mean nematode size ln(EXT) (ln) ([2]; 1 µM): 6.23
mean nematode size ln(EXT) (ln) ([2]; 5 µM): 6.09
mean nematode size ln(EXT) (ln) ([2]; 10 µM): 5.95
mean nematode size ln(EXT) (ln) ([2]; 50 µM): 6.05
mean nematode size ln(EXT) (ln) ([2]; 100 µM): 5.95
mean nematode size ln(EXT) (ln) ([2]; 200 µM): 3.29
lowest effective concentration [3]: 200 µM

CCCCCCCCOC(=O)c1ccc(C(=O)OCCCCCCCC)c(C(=O)OCCCCCCCC)c1 [Tri (n-octyl) Trimellitate]
AC50 for larval growth inhibition [1]: > 200 µM
mean nematode size ln(EXT) (ln) ([2]; 0.5 µM): 5.86
mean nematode size ln(EXT) (ln) ([2]; 1 µM): 5.93
mean nematode size ln(EXT) (ln) ([2]; 5 µM): 5.95
mean nematode size ln(EXT) (ln) ([2]; 10 µM): 5.85
mean nematode size ln(EXT) (ln) ([2]; 50 µM): 5.91
mean nematode size ln(EXT) (ln) ([2]; 100 µM): 5.92
mean nematode size ln(EXT) (ln) ([2]; 200 µM): 5.64
lowest effective concentration [3]: 200 µM

CC(C)=CC1C(C(=O)OCN2C(=O)C3=C(CCCC3)C2=O)C1(C)C (centres undefined) [Tetramethrin]
AC50 for larval growth inhibition [1]: 78.6 µM
mean nematode size ln(EXT) (ln) ([2]; 0.5 µM): 5.94
mean nematode size ln(EXT) (ln) ([2]; 1 µM): 5.96
mean nematode size ln(EXT) (ln) ([2]; 5 µM): 6.03
mean nematode size ln(EXT) (ln) ([2]; 10 µM): 6.01
mean nematode size ln(EXT) (ln) ([2]; 50 µM): 5.76
mean nematode size ln(EXT) (ln) ([2]; 100 µM): 4.97
mean nematode size ln(EXT) (ln) ([2]; 200 µM): 4.57
lowest effective concentration [3]: 100 µM

O=c1n(CC2CO2)c(=O)n(CC2CO2)c(=O)n1CC1CO1 (centres undefined) [Triglycidyl isocyanurate]
AC50 for larval growth inhibition [1]: > 200 µM
mean nematode size ln(EXT) (ln) ([2]; 0.5 µM): 5.88
mean nematode size ln(EXT) (ln) ([2]; 1 µM): 5.83
mean nematode size ln(EXT) (ln) ([2]; 5 µM): 5.84
mean nematode size ln(EXT) (ln) ([2]; 10 µM): 5.89
mean nematode size ln(EXT) (ln) ([2]; 50 µM): 5.86
mean nematode size ln(EXT) (ln) ([2]; 100 µM): 5.42
mean nematode size ln(EXT) (ln) ([2]; 200 µM): 5.65
lowest effective concentration [3]: 100 µM
